Results on 25 compounds are retold here after patent publication US9873709B2 (priority 2013, dated 2018).

The test deals with JAK1-dependent STAT6 phosphorylation downstream of IL-13 stimulation in TF-1 human erythroleukemia cells. Put plainly: cells. The note with it: TF-1, read-out: IL-13-pSTAT6 IC50.
Broadly, the IC50 is the midpoint of a concentration-inhibition curve. On to `O=C(CCC(F)(F)F)N1CC=C(c2cccn3nc(Nc4ccc(C(=O)N5CCN6CCCCC6C5)cc4)nc23)CC1` (stereo not shown) [Example 2-151, 1-[4-[2-[4-(1,3,4,6,7,8,9,9a-octahydropyrido[1,2-a]pyrazine-2-carbonyl)anilino]-[1,2,4]triazolo[1,5-a]pyridin-8-yl]-3,6-dihydro-2H-pyridin-1-yl]-4,4,4-trifluoro-butan-1-one], for which the 50% inhibitory concentration (IC50) came to 5.7 nM. Next, `CN(CCc1ccccn1)C(=O)c1ccc(Nc2nc3c(C4=CCN(C(=O)CCC(F)(F)F)CC4)cccn3n2)cc1` [Example 2-152, N-methyl-N-[2-(2-pyridyl)ethyl]-4-[[8-[1-(4,4,4-trifluorobutanoyl)-3,6-dihydro-2H-pyridin-4-yl]-[1,2,4]triazolo[1,5-a]pyridin-2-yl]amino]benzamide]: 9.3 nM. Next, `O=C(CCC(F)(F)F)N1CC=C(c2cccn3nc(Nc4ccc(C(=O)N5CCN(CCO)CC5)cc4)nc23)CC1` [Example 2-153, 4,4,4-trifluoro-1-[4-[2-[4-[4-(2-hydroxyethyl)piperazine-1-carbonyl]anilino]-[1,2,4]triazolo[1,5-a]pyridin-8-yl]-3,6-dihydro-2H-pyridin-1-yl]butan-1-one]: 28.6 nM. As to `O=C(CCC(F)(F)F)N1CC=C(c2cccn3nc(Nc4ccc(C(=O)N5CCC(c6cc7cccnc7[nH]6)CC5)cc4)nc23)CC1` [Example 2-155, 4,4,4-trifluoro-1-[4-[2-[4-[4-(1H-pyrrolo[2,3-b]pyridin-2-yl)piperidine-1-carbonyl]anilino]-[1,2,4]triazolo[1,5-a]pyridin-8-yl]-3,6-dihydro-2H-pyridin-1-yl]butan-1-one], the 50% inhibitory concentration (IC50) worked out at 132 nM.

For `O=C(CCC(F)(F)F)N1CC=C(c2cccn3nc(Nc4ccc(C(=O)N5CCC(c6ccccn6)CC5)cc4)nc23)CC1` [Example 2-156, 4,4,4-trifluoro-1-[4-[2-[4-[4-(2-pyridyl)piperidine-1-carbonyl]anilino]-[1,2,4]triazolo[1,5-a]pyridin-8-yl]-3,6-dihydro-2H-pyridin-1-yl]butan-1-one], the IC50 was 8.3 nM. Next, `CC1CN(C2CCN(C(=O)c3ccc(Nc4nc5c(C6=CCN(C(=O)CCC(F)(F)F)CC6)cccn5n4)cc3)CC2)CC(C)O1` (stereo not shown) [Example 2-157, 1-[4-[2-[4-[4-(2,6-dimethylmorpholin-4-yl)piperidine-1-carbonyl]anilino]-[1,2,4]triazolo[1,5-a]pyridin-8-yl]-3,6-dihydro-2H-pyridin-1-yl]-4,4,4-trifluoro-butan-1-one]: 4.7 nM. For `CN(C)[C@H]1CCN(C(=O)c2ccc(Nc3nc4c(C5=CCN(C(=O)CCC(F)(F)F)CC5)cccn4n3)cc2)C1` [Example 2-158, 1-[4-[2-[4-[(3S)-3-(dimethylamino)pyrrolidine-1-carbonyl]anilino]-[1,2,4]triazolo[1,5-a]pyridin-8-yl]-3,6-dihydro-2H-pyridin-1-yl]-4,4,4-trifluoro-butan-1-one], the half-maximal inhibitory concentration (IC50) turned out to be 7.3 nM. `CN1CCN(C(=O)C2CN(C(=O)c3ccc(Nc4nc5c(C6=CCN(C(=O)CCC(F)(F)F)CC6)cccn5n4)cc3)C2)CC1` [Example 2-159, 4,4,4-trifluoro-1-[4-[2-[4-[3-(4-methylpiperazine-1-carbonyl)azetidine-1-carbonyl]anilino]-[1,2,4]triazolo[1,5-a]pyridin-8-yl]-3,6-dihydro-2H-pyridin-1-yl]butan-1-one]: the IC50 was found to be 35.1 nM. Next, `CN1CCC(N(C)C(=O)c2ccc(Nc3nc4c(C5=CCN(C(=O)C6CC6(C)C)CC5)cccn4n3)cc2)CC1` (stereo not shown) [Example 2-160, 4-[[8-[1-(2,2-dimethylcyclopropanecarbonyl)-3,6-dihydro-2H-pyridin-4-yl]-[1,2,4]triazolo[1,5-a]pyridin-2-yl]amino]-N-methyl-N-(1-methyl-4-piperidyl)benzamide]: 47 nM. Next, `CN1CCC(N(C)C(=O)c2ccc(Nc3nc4c(C5=CCN(C(=O)C6C(C)(C)C6(C)C)CC5)cccn4n3)cc2)CC1` [Example 2-161, N-methyl-N-(1-methyl-4-piperidyl)-4-[[8-[1-(2,2,3,3-tetramethylcyclopropanecarbonyl)-3,6-dihydro-2H-pyridin-4-yl]-[1,2,4]triazolo[1,5-a]pyridin-2-yl]amino]benzamide]: 44.2 nM; `CN1CCC(N(C)C(=O)c2ccc(Nc3nc4c(C5=CCN(C(=O)CC(F)(F)F)CC5)cccn4n3)cc2)CC1` [Example 2-163, N-methyl-N-(1-methyl-4-piperidyl)-4-[[8-[1-(3,3,3-trifluoropropanoyl)-3,6-dihydro-2H-pyridin-4-yl]-[1,2,4]triazolo[1,5-a]pyridin-2-yl]amino]benzamide]: 28.4 nM; `CCOC(=O)N1CC=C(c2cccn3nc(Nc4ccc(C(=O)N5CC(CN)C5)cc4)nc23)CC1` [Example 2-165, ethyl 4-[2-[4-[3-(aminomethyl)azetidine-1-carbonyl]anilino]-[1,2,4]triazolo[1,5-a]pyridin-8-yl]-3,6-dihydro-2H-pyridine-1-carboxylate]: 187 nM. Next, `CCOC(=O)N1CC=C(c2cccn3nc(Nc4ccc(C(=O)NCCN5CC(C)OC(C)C5)cc4)nc23)CC1` (stereo not shown) [Example 2-167, ethyl 4-[2-[4-[2-(2,6-dimethylmorpholin-4-yl)ethylcarbamoyl]anilino]-[1,2,4]triazolo[1,5-a]pyridin-8-yl]-3,6-dihydro-2H-pyridine-1-carboxylate]: 15.8 nM; `CCOC(=O)N1CC=C(c2cccn3nc(Nc4ccc(C(=O)NC(C)c5cccc(C)n5)cc4)nc23)CC1` (stereo not shown) [Example 2-170, ethyl 4-[2-[4-[1-(6-methyl-2-pyridyl)ethylcarbamoyl]anilino]-[1,2,4]triazolo[1,5-a]pyridin-8-yl]-3,6-dihydro-2H-pyridine-1-carboxylate]: 14.8 nM. In the case of `CCOC(=O)N1CC=C(c2cccn3nc(Nc4ccc(C(=O)NCCc5ccncc5)cc4)nc23)CC1` [Example 2-172, ethyl 4-[2-[4-[2-(4-pyridyl)ethylcarbamoyl]anilino]-[1,2,4]triazolo[1,5-a]pyridin-8-yl]-3,6-dihydro-2H-pyridine-1-carboxylate], the 50% inhibitory concentration (IC50) was 12 nM. Next, `CCOC(=O)N1CC=C(c2cccn3nc(Nc4ccc(C(=O)N5CC6(CCN(C)CC6)C5)cc4)nc23)CC1` [Example 2-175, ethyl 4-[2-[4-(7-methyl-2,7-diazaspiro[3.5]nonane-2-carbonyl)anilino]-[1,2,4]triazolo[1,5-a]pyridin-8-yl]-3,6-dihydro-2H-pyridine-1-carboxylate]: 12.2 nM; `CCOC(=O)N1CC=C(c2cccn3nc(Nc4ccc(C(=O)N5CC6(CCCN6C)C5)cc4)nc23)CC1` [Example 2-176, ethyl 4-[2-[4-(5-methyl-2,5-diazaspiro[3.4]octane-2-carbonyl)anilino]-[1,2,4]triazolo[1,5-a]pyridin-8-yl]-3,6-dihydro-2H-pyridine-1-carboxylate]: 8.1 nM; `CCOC(=O)N1CC=C(c2cccn3nc(Nc4ccc(C(=O)NCc5cccnc5C)cc4)nc23)CC1` [Example 2-177, ethyl 4-[2-[4-[(2-methyl-3-pyridyl)methylcarbamoyl]anilino]-[1,2,4]triazolo[1,5-a]pyridin-8-yl]-3,6-dihydro-2H-pyridine-1-carboxylate]: 15.4 nM. Next, `CCOC(=O)N1CC=C(c2cccn3nc(Nc4ccc(C(=O)NCc5cncc(C)c5)cc4)nc23)CC1` [Example 2-178, ethyl 4-[2-[4-[(5-methyl-3-pyridyl)methylcarbamoyl]anilino]-[1,2,4]triazolo[1,5-a]pyridin-8-yl]-3,6-dihydro-2H-pyridine-1-carboxylate]: 32.6 nM. Next, `CCOC(=O)N1CC=C(c2cccn3nc(Nc4ccc(C(=O)N5CC6(CCCNC6)C5)cc4)nc23)CC1` [Example 2-185, ethyl 4-[2-[4-(2,8-diazaspiro[3,5]nonane-2-carbonyl)anilino]-[l,2,4]triazolo[l,5-a]pyridin-8-yl]-3,6-dihydro-2H-pyridine-1-carboxylate]: 29.9 nM. Regarding `O=C(CCC(F)(F)F)N1CC=C(c2cccn3nc(Nc4ccc(C(=O)N5CC6(CCCNC6)C5)cc4)nc23)CC1` [Example 2-186, 1-[4-[2-[4-(2,8-diazaspiro[3.5]nonane-2-carbonyl)anilino]-[1,2,4]triazolo[1,5-a]pyridin-8-yl]-3,6-dihydro-2H-pyridin-1-yl]-4,4,4-trifluoro-butan-1-one], the 50% inhibitory concentration (IC50) is 23.3 nM. Consider `O=C(CCC(F)(F)F)N1CC=C(c2cccn3nc(Nc4ccc(C(=O)N5CCC6(CCNCC6)C5)cc4)nc23)CC1` [Example 2-187, 1-[4-[2-[4-(2,8-diazaspiro[4.5]decane-2-carbonyl)anilino]-[1,2,4]triazolo[1,5-a]pyridin-8-yl]-3,6-dihydro-2H-pyridin-1-yl]-4,4,4-trifluoro-butan-1-one], for which the concentration for half-maximal inhibition (IC50) was 652 nM. Next, `O=C(NC1COC2(CCNCC2)C1)c1ccc(Nc2nc3c(C4=CCN(C(=O)CCC(F)(F)F)CC4)cccn3n2)cc1` (stereo not shown) [Example 2-188, N-(1-oxa-8-azaspiro[4.5]decan-3-yl)-4-[[8-[1-(4,4,4-trifluorobutanoyl)-3,6-dihydro-2H-pyridin-4-yl]-[1,2,4]triazolo[1,5-a]pyridin-2-yl]amino]benzamide]: 239 nM; `O=C(NCC1CCC2(CCNCC2)CO1)c1ccc(Nc2nc3c(C4=CCN(C(=O)CCC(F)(F)F)CC4)cccn3n2)cc1` (stereo not shown) [Example 2-189, N-(2-oxa-9-azaspiro[5.5]undecan-3-ylmethyl)-4-[[8-[1-(4,4,4-trifluorobutanoyl)-3,6-dihydro-2H-pyridin-4-yl]-[1,2,4]triazolo[1,5-a]pyridin-2-yl]amino]benzamide]: 110 nM; `O=C(CCC(F)(F)F)N1CC=C(c2cccn3nc(Nc4ccc(C(=O)N5CCCC6(CNCCO6)C5)cc4)nc23)CC1` (stereo not shown) [Example 2-190, 4,4,4-trifluoro-1-[4-[2-[4-(1-oxa-4,8-diazaspiro[5.5]undecane-8-carbonyl)anilino]-[1,2,4]triazolo[1,5-a]pyridin-8-yl]-3,6-dihydro-2H-pyridin-1-yl]butan-1-one]: 40.9 nM.
